Experimental data published in ChEMBL document CHEMBL5344445, “Profiling the Linear Peptides of Venom from the Brazilian Scorpion Tityus serrulatus: Structural and Functional Characterization” (J Nat Prod, 2024).
Active and inactive are the calls of the source. The calls are words filed in the database; no cut-off is given here. Peptide text beside a SMILES is read from it.

Tests used:
[1] = Induction of nociception in Swiss mouse at 2 ug, I.PL incubated for 300 mins by von frey test relative to control; type: toxicity; conditions: in vivo, other, 5 h
[2] = Induction of Wistar rat mast cell lysis assessed as LDH release at 5 to 500 uM incubated for 5 mins in presence of NADH relative to control; type: toxicity, cell-based; conditions: dose 5-500 µM
Streptococcus pneumoniae = experiment: Antibacterial activity against Streptococcus pneumoniae; type: functional, organism-based
[3] = Induction of edema formation in Swiss mouse at 2 ug, I.PL measured after 180 mins relative to control; type: toxicity; conditions: in vivo, other, 3 h
[4] = Induction of edema formation in Swiss mouse at 2 ug, I.PL measured after 300 mins relative to control; type: toxicity; conditions: in vivo, other, 5 h
[5] = Induction of nociception in Swiss mouse at 2 ug, I.PL incubated for 60 mins by von frey test relative to control; type: toxicity; conditions: in vivo, other, 1 h
[6] = Induction of nociception in Swiss mouse at 2 ug, I.PL incubated for 180 mins by von frey test relative to control; type: toxicity; conditions: in vivo, other, 3 h
Klebsiella aerogenes = experiment: Antibacterial activity against Enterobacter aerogenes; type: functional, organism-based
[7] = Effect on rearing activity in Swiss mouse assessed as increase in frequency at 2 ug, I.PL incubated for 3 to 15 mins by open field test relative to control; type: toxicity; conditions: in vivo, other, time 3-15 min
[8] = Induction of edema formation in Swiss mouse at 2 ug, I.PL measured after 60 mins relative to control; type: toxicity; conditions: in vivo, other, 1 h
[9] = Induction of Wistar rat mast cell degranulation assessed as beta-D-glusosaminidase release at 5 to 500 uM incubated for 15 mins relative to control; type: toxicity, cell-based; conditions: 0.25 h, dose 5-500 µM
[10] = Effect on locomotory activity in Swiss mouse assessed as decrease in frequency at 2 ug, I.PL incubated for 3 to 15 mins by open field test relative to control; type: toxicity; parameters: scale not given: the % may be the effect or the level left; conditions: in vivo, other, time 3-15 min
Staphylococcus aureus = experiment: Antibacterial activity against Staphylococcus aureus; type: functional, organism-based
Escherichia coli = experiment: Antibacterial activity against Escherichia coli; type: functional, organism-based
Erythrocyte = experiment: (§1) Hemolytic activity in Wistar rat RBC at 5 to 500 uM incubated for 120 mins; type: toxicity, cell-based; conditions: erythrocyte, 2 h, 500 µM, dose 5-500 µM
[11] = as §1; type: toxicity, cell-based, Erythrocyte; conditions: Wistar, red blood cells (erythrocytes), dose 5-500 µM, read-out: Activity

Compound: CC(C)C[C@H](NC(=O)CNC(=O)CNC(=O)[C@H](Cc1c[nH]cn1)NC(=O)[C@H](CC(=O)O)NC(=O)CNC(=O)[C@H](CO)NC(=O)[C@H](CC(C)C)NC(=O)[C@H](CC(C)C)NC(=O)[C@H](C)NC(=O)[C@H](CC(=O)O)NC(=O)[C@H](CS)NC(=O)CN)C(=O)N[C@@H](CC(C)C)C(=O)N[C@@H](CO)C(=O)N[C@@H](C)C(=O)N[C@@H](CC(N)=O)C(=O)NCC(=O)N[C@@H](CS)C(=O)O (H-GCDALLSGDHGGLLSANGC-OH)
- Activity ([1]; dose 2 µg): Non-Toxic
- Activity [2]: Non-Toxic
- Activity (Streptococcus pneumoniae): inactive
- Activity ([3]; dose 2 µg): Non-Toxic
- Activity ([4]; dose 2 µg): Non-Toxic
- Activity ([5]; dose 2 µg): Non-Toxic
- Activity ([6]; dose 2 µg): Non-Toxic
- Activity (Klebsiella aerogenes): inactive
- Activity ([7]; dose 2 µg): Non-Toxic
- Activity ([8]; dose 2 µg): Non-Toxic
- Activity [9]: Non-Toxic
- Activity ([10]; dose 2 µg): Non-Toxic
- Activity (Staphylococcus aureus): inactive
- Activity (Escherichia coli): inactive
- Activity (Erythrocyte): Non-Toxic

Compound: H-AEIDFSGIPEDIIKQI-OH
- Activity ([1]; at 2 µg): 71%
- Activity [2]: Non-Toxic
- Activity (Streptococcus pneumoniae): inactive
- Activity ([3]; dose 2 µg): Non-Toxic
- Activity ([4]; dose 2 µg): Non-Toxic
- Activity ([5]; at 2 µg): 71%
- Activity ([6]; at 2 µg): 71%
- Activity (Klebsiella aerogenes): inactive
- Activity ([7]; at 2 µg): <= 40%
- Activity ([8]; dose 2 µg): Non-Toxic
- Activity [9]: Non-Toxic
- Activity ([10]; at 2 µg): <= 40%
- Activity (Staphylococcus aureus): inactive
- Activity (Escherichia coli): inactive
- Activity (Erythrocyte): Non-Toxic

Compound: H-DEGPKSDCKP-OH
- Activity ([1]; at 2 µg): 71%
- Activity [2]: Non-Toxic
- Activity (Streptococcus pneumoniae): inactive
- Activity ([3]; at 2 µg): 71%
- Activity ([4]; at 2 µg): 71%
- Activity ([5]; at 2 µg): 71%
- Activity ([6]; at 2 µg): 71%
- Activity (Klebsiella aerogenes): inactive
- Activity ([7]; at 2 µg): 41%
- Activity ([8]; at 2 µg): 71%
- Activity [9]: Non-Toxic
- Activity ([10]; dose 2 µg): Non-Toxic
- Activity (Staphylococcus aureus): inactive
- Activity (Escherichia coli): inactive
- hemolysis at 2 h, up to 500 µM [11]: ≤ 40%

Compound: H-GKGKEILGK-OH
- Activity ([1]; dose 2 µg): Non-Toxic
- Activity [2]: Non-Toxic
- Activity (Streptococcus pneumoniae): inactive
- Activity ([3]; dose 2 µg): Non-Toxic
- Activity ([4]; dose 2 µg): Non-Toxic
- Activity ([5]; dose 2 µg): Non-Toxic
- Activity ([6]; dose 2 µg): Non-Toxic
- Activity (Klebsiella aerogenes): inactive
- Activity ([7]; dose 2 µg): Non-Toxic
- Activity ([8]; dose 2 µg): Non-Toxic
- Activity [9]: Non-Toxic
- Activity ([10]; dose 2 µg): Non-Toxic
- Activity (Staphylococcus aureus): inactive
- Activity (Escherichia coli): inactive
- Activity (Erythrocyte): Non-Toxic

Compound: H-GLREKHVQ-OH
- Activity ([1]; dose 2 µg): Non-Toxic
- Activity [2]: Non-Toxic
- Activity (Streptococcus pneumoniae): inactive
- Activity ([3]; dose 2 µg): Non-Toxic
- Activity ([4]; dose 2 µg): Non-Toxic
- Activity ([5]; dose 2 µg): Non-Toxic
- Activity ([6]; dose 2 µg): Non-Toxic
- Activity (Klebsiella aerogenes): inactive
- Activity ([7]; dose 2 µg): Non-Toxic
- Activity ([8]; dose 2 µg): Non-Toxic
- Activity [9]: Non-Toxic
- Activity ([10]; at 2 µg): <= 40%
- Activity (Staphylococcus aureus): inactive
- Activity (Escherichia coli): inactive
- Activity (Erythrocyte): Non-Toxic

Compound: H-ILPNDK-OH
- Activity ([1]; dose 2 µg): Non-Toxic
- Activity [2]: Non-Toxic
- Activity (Streptococcus pneumoniae): inactive
- Activity ([3]; dose 2 µg): Non-Toxic
- Activity ([4]; dose 2 µg): Non-Toxic
- Activity ([5]; dose 2 µg): Non-Toxic
- Activity ([6]; dose 2 µg): Non-Toxic
- Activity (Klebsiella aerogenes): inactive
- Activity ([7]; dose 2 µg): Non-Toxic
- Activity ([8]; dose 2 µg): Non-Toxic
- Activity [9]: Non-Toxic
- Activity ([10]; dose 2 µg): Non-Toxic
- Activity (Staphylococcus aureus): inactive
- Activity (Escherichia coli): inactive
- hemolysis at 2 h, up to 500 µM [11]: ≤ 40%

Compound: H-ILTGKLKCK-OH
- Activity ([1]; at 2 µg): 41%
- Activity [2]: Non-Toxic
- Activity (Streptococcus pneumoniae): inactive
- Activity ([3]; dose 2 µg): Non-Toxic
- Activity ([4]; dose 2 µg): Non-Toxic
- Activity ([5]; at 2 µg): 41%
- Activity ([6]; at 2 µg): 41%
- Activity (Klebsiella aerogenes): inactive
- Activity ([7]; dose 2 µg): Non-Toxic
- Activity ([8]; at 2 µg): 71%
- Activity [9]: Non-Toxic
- Activity ([10]; dose 2 µg): Non-Toxic
- Activity (Staphylococcus aureus): inactive
- Activity (Escherichia coli): inactive
- Activity (Erythrocyte): Non-Toxic

Compound: H-IPEDIIKK-OH
- Activity ([1]; dose 2 µg): Non-Toxic
- Activity [2]: <= 40%
- Activity (Streptococcus pneumoniae): inactive
- Activity ([3]; dose 2 µg): Non-Toxic
- Activity ([4]; dose 2 µg): Non-Toxic
- Activity ([5]; dose 2 µg): Non-Toxic
- Activity ([6]; dose 2 µg): Non-Toxic
- Activity (Klebsiella aerogenes): inactive
- Activity ([7]; dose 2 µg): Non-Toxic
- Activity ([8]; dose 2 µg): Non-Toxic
- Activity [9]: <= 40%
- Activity ([10]; dose 2 µg): Non-Toxic
- Activity (Staphylococcus aureus): inactive
- Activity (Escherichia coli): inactive
- hemolysis at 2 h, up to 500 µM [11]: ≤ 40%

Compound: H-KETNAKPPA-OH
- Activity ([1]; at 2 µg): 71%
- Activity [2]: Non-Toxic
- Activity (Streptococcus pneumoniae): inactive
- Activity ([3]; dose 2 µg): Non-Toxic
- Activity ([4]; dose 2 µg): Non-Toxic
- Activity ([5]; at 2 µg): 41%
- Activity ([6]; at 2 µg): 71%
- Activity (Klebsiella aerogenes): inactive
- Activity ([7]; at 2 µg): <= 40%
- Activity ([8]; dose 2 µg): Non-Toxic
- Activity [9]: Non-Toxic
- Activity ([10]; at 2 µg): <= 40%
- Activity (Staphylococcus aureus): inactive
- Activity (Escherichia coli): inactive
- Activity (Erythrocyte): Non-Toxic

Compound: H-KHFGKDSNFPF-NH2
- Activity ([1]; dose 2 µg): Non-Toxic
- Activity [2]: Non-Toxic
- Activity (Streptococcus pneumoniae): inactive
- Activity ([3]; dose 2 µg): Non-Toxic
- Activity ([4]; dose 2 µg): Non-Toxic
- Activity ([5]; dose 2 µg): Non-Toxic
- Activity ([6]; dose 2 µg): Non-Toxic
- Activity (Klebsiella aerogenes): inactive
- Activity ([7]; dose 2 µg): Non-Toxic
- Activity ([8]; dose 2 µg): Non-Toxic
- Activity [9]: Non-Toxic
- Activity ([10]; at 2 µg): <= 40%
- Activity (Staphylococcus aureus): inactive
- Activity (Escherichia coli): inactive
- Activity (Erythrocyte): Non-Toxic

Compound: H-KPVEPVG-OH
- Activity ([1]; at 2 µg): <= 40%
- Activity [2]: Non-Toxic
- Activity (Streptococcus pneumoniae): inactive
- Activity ([3]; dose 2 µg): Non-Toxic
- Activity ([4]; dose 2 µg): Non-Toxic
- Activity ([5]; at 2 µg): <= 40%
- Activity ([6]; at 2 µg): <= 40%
- Activity (Klebsiella aerogenes): inactive
- Activity ([7]; at 2 µg): 41%
- Activity ([8]; dose 2 µg): Non-Toxic
- Activity [9]: Non-Toxic
- Activity ([10]; dose 2 µg): Non-Toxic
- Activity (Staphylococcus aureus): inactive
- Activity (Escherichia coli): inactive
- Activity (Erythrocyte): Non-Toxic

Compound: H-SESNTCG-OH
- Activity ([1]; at 2 µg): <= 40%
- Activity [2]: Non-Toxic
- Activity (Streptococcus pneumoniae): inactive
- Activity ([3]; dose 2 µg): Non-Toxic
- Activity ([4]; dose 2 µg): Non-Toxic
- Activity ([5]; at 2 µg): <= 40%
- Activity ([6]; at 2 µg): <= 40%
- Activity (Klebsiella aerogenes): inactive
- Activity ([7]; at 2 µg): <= 40%
- Activity ([8]; dose 2 µg): Non-Toxic
- Activity [9]: Non-Toxic
- Activity ([10]; dose 2 µg): Non-Toxic
- Activity (Staphylococcus aureus): inactive
- Activity (Escherichia coli): inactive
- Activity (Erythrocyte): Non-Toxic
